Test results taken from patent US20240197852A1, “PSORALEN-I[…] G[…] AND METHODS THEREOF” (Wake Forest University Health Sciences, priority 2021, published 2024).

Experiments:
[1] = test system: E. coli strain H10407; experiment: AMT and UVA crosslinking of E. coli (one round), overnight growth in LB broth; format: cell-based
Protocol: (§1) Psoralen Inactivation: GC strains were grown overnight on GC agar plates. Overnight growth (between 16 and 18 hours) was resuspended in 5 mls of GCP and OD600 was adjusted to 1.0. Cells were diluted 2:25 in 5 mls GCP supplemented with sodium bicarbonate and Isovitalex and grown at 37 °C in the shaker for 7 hours at which time AMT was added and the cultures were incubated in the shaker for another hour. All bacterial cultures were then moved into 6 well cell culture plates and treated with 1 Joule/cm^2 UV light using an Analytik Jena Crosslinker with UVA light source (365 nm) (model #CL-1000L, Upland, CA). Cultures were returned to tubes and a second dose of AMT was added. Cultures were shaken for 1 hour at 37 °C and then crosslinked again at the same UV dose. Samples were washed in PBS and then plated on GC agar and incubated for two days at 37 °C and 5% CO2 to measure growth as an indication of the presence of residual CFU.
(§2) Early experiments on the effects of different doses of 8-MOP, AMT, and of UV on bacterial cells were done in E. coli strain H10407 due to its relative ease and speed of growth. H10407 was diluted 1:500 in LB and grown for 5 hours at 37 °C in a shaker. Psoralen inactivation was performed as described for GC. Bacterial cells were washed and inoculated into LB broth or plated onto LB agar to measure overnight growth as an indication of the presence of residual CFU.
We then used the psoralen derivative 4-aminomethyl-4,5′, 8-trimethylpsoralen (AMT). Multiple separate cultures of the E. coli strain H10407 were treated with doses of psoralen derivative 4-aminomethyl-4,5′, 8-trimethylpsoralen (AMT) ranging from 0 to 60 μg/ml and treated with 1 Joule/cm^2, 7 Joules/cm^2, or 10 Joules/cm^2 UVA light and then diluted into LB broth and grown overnight. […] Control cultures that received no treatment always grew up overnight as did cultures that only received AMT and no UVA or UVA treatment with no AMT. Heat killed cultures never grew up overnight. […] (See Table 1). Cultures that had no growth were left to grow for 3 more days to make sure that no growth came up later.

[2] = test system: E. coli strain H10407; experiment: two doses of AMT and two rounds of UVA on E. coli, plating for surviving CFU; format: cell-based; details: for CFUs of treated cells / Percent Survival: 1 Joule/cm^2 two times
Protocol: as §1, §2
The desire was a method to inactivate the culture consistently with AMT. E. coli strain H10407 was treated with AMT and UVA as before, but then immediately retreated the same culture once again with AMT at the same dosage, allowing the culture to shake for 1 hour, and then crosslinking it a second time and plating the cells to see which cultures would still have surviving cells capable of growth. By plating the cells and comparing to the CFUs of an untreated culture we were able to determine a percentage of surviving cells. Multiple cultures were treated at every drug dose. (See Table 2)
Thirty separate 1 ml cultures of H10407 were grown, treated with AMT at a dose of 40 μg/ml two times, and given 1 Joule/cm^2 of UVA two times and allowed to grow overnight on LB plates. […] LB plates were kept for multiple days to ensure there was no later growth.

[3] = test system: GC strain FA1090; experiment: one round of AMT and UV light crosslinking of GC, plating, percent cell survival; format: cell-based, Neisseria gonorrhoeae; details: 1 Joule/cm^2
Protocol: as §1
(§3) Evaluating the use of a GC uvrB mutants: In order to examine the effect of a mutation in the uvrB locus that affects DNA repair GC strains FA1090 and its derivatives 1-81-S2 (uvrB:kan #4 Opa+) and 1-81-S2 (uvrB:kan #9) were tested. uvrB mutants have been used by other labs to reduce the amount of 8-MOP or S-59 needed to inactivate bacterial cells and to therefore leave them with higher metabolic activity (KBMA). FA1090 and mutant strains were treated with varying doses of AMT, grown for one hour at 37 °C, and then irradiated with UVA at 1 Joule/cm^2. The entire culture was washed and plated onto a single plate. Surviving colonies were counted and compared to live cultures to determine percent cell survival. Multiple cultures of each strain were tested at each dosage level. (see Table 3).

[4] = test system: FA1090 uvrB mutant strain 1-81-S2 (uvrB:kan #4 Opa+); experiment: one round of AMT and UV light crosslinking of GC uvrB mutant, plating, percent cell survival; format: cell-based, Neisseria gonorrhoeae; details: 1 Joule/cm^2
Protocol: as §1, §3

[5] = test system: FA1090 uvrB mutant strain 1-81-S2 (uvrB:kan #9); experiment: as above; format: cell-based, Neisseria gonorrhoeae; details: 1 Joule/cm^2
Protocol: as §1, §3

[6] = test system: GC strain FA1090; experiment: two rounds of AMT and UVA on GC, plating on GC agar for survivors; format: cell-based, Neisseria gonorrhoeae; details: thirty 1 ml cultures, approximately 3×10^10 cells; 20 μg/ml AMT and 1 Joule/cm^2 UVA two times
Protocol: as §1
To get consistent inactivation of GC we treated FA1090 with two rounds of AMT and UVA. Thirty separate 1 ml cultures of FA1090 were given 20 μg/ml AMT and irradiated with 1 Joule/cm^2 UVA two times and plated onto 30 GC agar plates and grown for two days.

[7] = test system: E. coli strain H10407; experiment: 8-MOP and UVA crosslinking of E. coli, overnight growth in LB broth; format: cell-based; details: 50, 60, 70, or 80 μg/ml 8-MOP; 1 Joule/cm^2 or 7 Joules/cm^2 UVA
Protocol: as §2
Inactivation of E. coli with AMT+UVA light: Other labs had previously reported the use of the psoralen derivatives 8-MOP or S-59/psoralen and UVA light to inactivate bacterial cultures containing DNA repair mutations. In order to determine if a bacterial culture not containing a DNA repair mutation with 8-MOP and UVA crosslinking could be inactivated, E. coli strain H10407 was used. Multiple separate cultures of this strain were treated with 50, 60, 70, or 80 μg/ml 8-MOP and treated with 1 Joule/cm^2 or 7 Joules/cm^2 UVA light and then diluted into LB broth and grown overnight. If even one cell in each culture survived the treatment with 8-MOP and UVA, it was expected to see growth in the overnight culture. Control cultures that received UVA but no 8-MOP, 8-MOP but no UVA, and no UVA or 8-MOP were also included. Heat killed cultures were diluted and grown overnight as a negative control.

With `Cc1oc2c(C)c3oc(=O)cc(C)c3cc2c1CN` [AMT, 4-aminomethyl-4,5′, 8-trimethylpsoralen] the “Percentage of cultures inactivated” value ([1]; AMT 20 ug/ml, 1 Joule/cm^2) was 0%, the “number of cultures inactivated (no overnight growth) / total cultures treated” value ([1]; AMT 20 ug/ml, 1 Joule/cm^2) was 0/5 and the “Percentage of cultures inactivated” value ([1]; AMT 20 ug/ml, 7 Joules/cm^2) was 67%. For the same compound, the “number of cultures inactivated (no overnight growth) / total cultures treated” value ([1]; AMT 20 ug/ml, 7 Joules/cm^2) was 2/3, the “Percentage of cultures inactivated” value ([1]; AMT 30 ug/ml, 1 Joule/cm^2) was 0% and the “number of cultures inactivated (no overnight growth) / total cultures treated” value ([1]; AMT 30 ug/ml, 1 Joule/cm^2) was 0/5. For the same compound, the “Percentage of cultures inactivated” value ([1]; AMT 30 ug/ml, 7 Joules/cm^2) was 33%, the “number of cultures inactivated (no overnight growth) / total cultures treated” value ([1]; AMT 30 ug/ml, 7 Joules/cm^2) was 1/3 and the “Percentage of cultures inactivated” value ([1]; AMT 40 ug/ml, 1 Joule/cm^2) was 60%. For the same compound, the “number of cultures inactivated (no overnight growth) / total cultures treated” value ([1]; AMT 40 ug/ml, 1 Joule/cm^2) was 3/5, the “Percentage of cultures inactivated” value ([1]; AMT 50 ug/ml, 1 Joule/cm^2) was 82% and the “number of cultures inactivated (no overnight growth) / total cultures treated” value ([1]; AMT 50 ug/ml, 1 Joule/cm^2) was 9/11. For the same compound, the “Percentage of cultures inactivated” value ([1]; AMT 50 ug/ml, 7 Joules/cm^2) was 78%, the “number of cultures inactivated (no overnight growth) / total cultures treated” value ([1]; AMT 50 ug/ml, 7 Joules/cm^2) was 7/9 and the “Percentage of cultures inactivated” value ([1]; AMT 50 ug/ml, 10 Joules/cm^2) was 80%. The “number of cultures inactivated (no overnight growth) / total cultures treated” value ([1]; AMT 50 ug/ml, 10 Joules/cm^2) was 12/15, the “Percentage of cultures inactivated” value ([1]; AMT 60 ug/ml, 1 Joule/cm^2) was 80% and the “number of cultures inactivated (no overnight growth) / total cultures treated” value ([1]; AMT 60 ug/ml, 1 Joule/cm^2) was 4/5. The “inactivation of cultures (overnight growth)” value ([1]; AMT up to 60 μg/ml, 1, 7 or 10 Joules/cm^2 UVA, one round) was “sometimes completely inactivated”, the “CFUs of treated cells” value ([2]; AMT 10 ug/ml two doses) was 79 and the “Percent Survival” value ([2]; AMT 10 ug/ml two doses) was 2.6 × 10^−6%. The “CFUs of treated cells” value ([2]; AMT 30 ug/ml two doses) was 2, the “Percent Survival” value ([2]; AMT 30 ug/ml two doses) was 5 × 10^−8% and the “CFUs of treated cells” value ([2]; AMT 35 ug/ml two doses) was 55. The “Percent Survival” value ([2]; AMT 35 ug/ml two doses) was 6.1 × 10^−7%, the “CFUs of treated cells” value ([2]; AMT 40 ug/ml two doses) was 0 and the “Percent Survival” value ([2]; AMT 40 ug/ml two doses) was 0%. The “surviving cells capable of growth” value ([2]; thirty 1 ml cultures, approximately 3.7×10^10 cells, 40 μg/ml AMT and 1 Joule/cm^2 UV two times) was “no cells still capable of growth”, the “Percent Cell Survival” value ([3]; AMT 2 ug/ml) was 7.85 × 10^−6% and the “Percent Cell Survival” value ([3]; AMT 5 ug/ml) was 1.23 × 10^−6%. For the same compound, the “Percent Cell Survival” value ([3]; AMT 7 ug/ml) was 0%, the “Percent Cell Survival” value ([3]; AMT 10 ug/ml) was 0% and the “Percent Cell Survival” value ([3]; AMT 30 ug/ml) was 0%. For the same compound, the “Percent Cell Survival” value ([3]; AMT 50 ug/ml) was 0%, the “Percent Cell Survival” value ([3]; AMT 70 ug/ml) was 2.56 × 10^−7% and the “Percent Cell Survival” value ([3]; AMT 100 ug/ml) was 0%. For the same compound, the “Percent Cell Survival” value ([4]; AMT 2 ug/ml) was 5.56 × 10^−8%, the “Percent Cell Survival” value ([4]; AMT 5 ug/ml) was 0% and the “Percent Cell Survival” value ([4]; AMT 7 ug/ml) was 0%. For the same compound, the “Percent Cell Survival” value ([4]; AMT 10 ug/ml) was 0%, the “Percent Cell Survival” value ([4]; AMT 30 ug/ml) was 0% and the “Percent Cell Survival” value ([4]; AMT 50 ug/ml) was 0%. The “Percent Cell Survival” value ([4]; AMT 70 ug/ml) was 1.11 × 10^−6%, the “Percent Cell Survival” value ([4]; AMT 100 ug/ml) was 0% and the “Percent Cell Survival” value ([5]; AMT 2 ug/ml) was 7.23 × 10^−7%. For the same compound, the “Percent Cell Survival” value ([5]; AMT 5 ug/ml) was 4.0 × 10^−7%, the “Percent Cell Survival” value ([5]; AMT 7 ug/ml) was 6.3 × 10^−8% and the “Percent Cell Survival” value ([5]; AMT 10 ug/ml) was 0%. The “Percent Cell Survival” value ([5]; AMT 30 ug/ml) was 0%, the “Percent Cell Survival” value ([5]; AMT 50 ug/ml) was 0% and the “Percent Cell Survival” value ([5]; AMT 70 ug/ml) was 0%. For the same compound, the “Percent Cell Survival” value ([5]; AMT 100 ug/ml) was 0% and the “survivors after plating on GC agar, two days” value [6] was “No survivors were detected”.

For `COc1c2occc2cc2ccc(=O)oc12` [8-MOP, 8-methoxypsoralen], the “inactivation of cultures (overnight growth)” value [7] was “not inactivated”.
